Key:
U87MG cells = assay: TMZ dose response, MTT cell viability assay, U87MG; set-up: AUC (area under dose response curve): unit not given beside the values
[1] = test system: differentiated cells (NDx) of NSP; assay: TMZ dose response of differentiated NSP cells (NDx); details: Homo sapiens
Description: For dose-response experiments, four replicates at ˜20,000 cells per well were plated in 96-well Nunc™ tissue culture plates in full growth medium for 24 h, treated with different doses of TMZ in serial dilutions (0.05Me5M) followed by cell viability tests using the MTT assay. Appropriate cell controls (without TMZ treatment) were used to calculate IC50.

[2] = test system: NSP cells (neurospheres derived from U87MG); assay: TMZ dose response, MTT cell viability assay, neurospheres (NSP); set-up: AUC (area under dose response curve): unit not given beside the values

IC50 (U87MG cells; Homo sapiens, U-87 MG): 746 µM | IC50 [1]: 818 µM | IC50 ([2]; Homo sapiens, U-87 MG): 1040 µM
SMILES: Cn1nnc2c(C(N)=O)ncn2c1=O [Temozolomide]
AUC (area under dose response curve) (U87MG cells; U87MG): 53039 | Emax (U87MG cells; U87MG): 25.53 | Log2 (Hill Slope) (U87MG cells; U87MG): −1.959 | fold resistance ratio ([2]; NSP relative to U87MG): 1.41 | AUC (area under dose response curve) ([2]; Neurospheres (NSP)): 276836 | Emax ([2]; Neurospheres (NSP)): 49.29 | Log2 (Hill Slope) ([2]; Neurospheres (NSP)): 0
